Legend:
[1] = test system: Puccinia recondita (wheat); experiment: Fungicidal test against foliar disease A (foliage spray plus soil drench); type: in vivo; conditions: 100 ppm spray and drench; 10 days
[2] = test system: Plasmopara viticola (vine); experiment: Fungicidal test against foliar disease C (foliage spray plus soil drench); type: in vivo; conditions: 100 ppm spray and drench; 10 days
Uncinula necator (vine) = experiment: Fungicidal test against foliar disease D (foliage spray plus soil drench); type: in vivo; conditions: 100 ppm spray and drench; 10 days
[3] = test system: Piricularia oryzae (rice); type: in vivo; conditions: 100 ppm spray and drench; 7 days
[4] = test system: Venturia inaequalis (apple); experiment: Fungicidal test against foliar disease G (foliage spray plus soil drench); type: in vivo; conditions: 100 ppm spray and drench; 21 days
Outline: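 Apple plants were foliage-sprayed and soil-drenched with an aqueous solution or suspension at 100 ppm unless otherwise stated, then inoculated alongside untreated controls. After a disease-dependent number of days, disease was visually graded as a percentage of that on untreated controls.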

[5] = test system: Tetranychus telarius (red spider mites, adults); experiment: Pest toxicity test; type: in vivo; conditions: 0.1% by weight; French bean; 3 days
[6] = test system: Tetranychus telarius (red spider mites, eggs); experiment: Pest toxicity test; type: in vivo; conditions: 0.1% by weight; French bean; 3 days
Aphis fabae = experiment: Pest toxicity test; type: in vivo; conditions: 0.1% by weight; broad bean; 2 days
Megoura viceae = experiment: Pest toxicity test; type: in vivo; conditions: 0.1% by weight; broad bean; 2 days
[7] = test system: Aedes aegypti (mosquito larvae); experiment: Pest toxicity test; type: in vivo
[8] = test system: Aedes aegypti (mosquito adults); experiment: Pest toxicity test; type: in vivo; conditions: 0.01% by weight; plywood; 1 day
[9] = test system: Musca domestica (houseflies); experiment: Pest toxicity test, contact test; type: in vivo; conditions: 0.1% by weight; milk/sugar; 2 days; flies sprayed directly
[10] = test system: Pieris brassicae (cabbage white caterpillars); experiment: Pest toxicity test; type: in vivo; conditions: 0.1% by weight, 2 days
[11] = test system: Plutella maculipennis (diamond back moth larvae); experiment: Pest toxicity test; type: in vivo; conditions: 0.1% by weight; mustard/paper; 2 days
[12] = test system: Phaedon cochleariae (mustard beetles); experiment: Pest toxicity test; type: in vivo; conditions: 0.1% by weight; mustard/paper; 2 days
Lettuce = experiment: Herbicidal test, pre- and post-emergence; type: in vivo; conditions: 10 lb/acre (11.2 kg/ha); scale 0 (no effect) to 3 (complete kill)
Tomato = experiment: Herbicidal test, pre- and post-emergence; type: in vivo; conditions: 10 lb/acre (11.2 kg/ha); scale 0 (no effect) to 3 (complete kill)
Wheat [13] = experiment: Herbicidal test, pre- and post-emergence; type: in vivo; conditions: 10 lb/acre (11.2 kg/ha); scale 0 (no effect) to 3 (complete kill)
Maize = experiment: Herbicidal test, pre- and post-emergence; type: in vivo; conditions: 10 lb/acre (11.2 kg/ha); scale 0 (no effect) to 3 (complete kill)
Sugar beet = experiment: Further herbicidal test, various rates; type: in vivo; conditions: scale 0 to 5 (complete kill)
Kale = experiment: Further herbicidal test, various rates; type: in vivo; conditions: scale 0 to 5 (complete kill)
Carrot = experiment: Further herbicidal test, various rates; type: in vivo; conditions: scale 0 to 5 (complete kill)
Pea = experiment: Further herbicidal test, various rates; type: in vivo; conditions: scale 0 to 5 (complete kill)
Onion = experiment: Further herbicidal test, various rates; type: in vivo; conditions: scale 0 to 5 (complete kill)
Barley [14] = experiment: Further herbicidal test, various rates; type: in vivo; conditions: scale 0 to 5 (complete kill)
Rice = experiment: Further herbicidal test, various rates; type: in vivo; conditions: scale 0 to 5 (complete kill)
Oat = experiment: Further herbicidal test, various rates; type: in vivo; conditions: scale 0 to 5 (complete kill)
Barley [15] = experiment: Selective herbicidal activity; type: in vivo; conditions: for Damage to plants: 28 days, scale 0 to 10 (complete kill)
Excerpt: (§1) This Example illustrates the selective herbicidal activity of compounds No. 5 and 12 of Table 1. The compounds, formulated as in Example 5 were sprayed on to pots of soil previously sown with seeds of the plant species shown in Tables 13 and 14.
(§2) Table 14 gives the results for compound No. 12 of Table 1 The figures are assessments of damage to the plants 23 days after treatment, on a scale of 0 to 5 where 0 is no effect and 5 is complete kill

Wheat [16] = experiment: Selective herbicidal activity; type: in vivo; conditions: for Damage to plants: 28 days, scale 0 to 10 (complete kill)
Excerpt: as §1, §2

broadleaved plants = experiment: Selective herbicidal activity; type: in vivo; conditions: Tables 13 and 14
Excerpt: as §1, §2

Redshank = experiment: Selective herbicidal activity; type: in vivo, Polygonum persicaria; conditions: 28 days, scale 0 to 10 (complete kill)
Excerpt: as §1
Redshank Polygonum persicaria

Annual Nettle = experiment: Selective herbicidal activity; type: in vivo, Urtica urens; conditions: 28 days, scale 0 to 10 (complete kill)
Excerpt: as §1
Annual Nettle Urtica urens

Mayweed = experiment: Selective herbicidal activity; type: in vivo, Tripleurospermum maritimum ssp. inodorum; conditions: 28 days, scale 0 to 10 (complete kill)
Excerpt: as §1
Mayweed Tripleurospermum maritimum

Chickweed = experiment: Selective herbicidal activity; type: in vivo, Stellaria media; conditions: 28 days, scale 0 to 10 (complete kill)
Excerpt: as §1
Chickweed Stellaria media

Groundsel = experiment: Selective herbicidal activity; type: in vivo, Senecio vulgaris; conditions: 28 days, scale 0 to 10 (complete kill)
Excerpt: as §1
Groundsel Senecio vulgaris

Speedwell = experiment: Selective herbicidal activity; type: in vivo, Veronica spp; conditions: 28 days, scale 0 to 10 (complete kill)
Excerpt: as §1

White mustard = experiment: Selective herbicidal activity; type: in vivo, Sinapis alba; conditions: 28 days, scale 0 to 10 (complete kill)
Excerpt: as §1
White mustard Sinapis alba

Wild oat = experiment: Selective herbicidal activity; type: in vivo, Avenua fatua; conditions: 28 days, scale 0 to 10 (complete kill)
Excerpt: as §1

## O=[N+]([O-])c1ccc(Nc2c(Cl)c(F)nc(F)c2Cl)c(C(F)(F)F)c1 [Compound 5]
[1]
  Amount of disease grading, disease A: 3 (0 to 5)
[2]
  Amount of disease grading, disease C: 3 (0 to 5)
Uncinula necator (vine)
  Amount of disease grading, disease D: 3 (0 to 5)
[3]
  Amount of disease grading, disease E: 0 (61 to 100)
[4]
  Amount of disease grading, disease G: 3 (0 to 5)
[5]
  Mortality grading (kill): 3 (3 represents over 90% kill)
[6]
  Mortality grading (kill): 3 (3 represents over 90% kill)
Aphis fabae
  Mortality grading (kill): 3 (3 represents over 90% kill)
Megoura viceae
  Mortality grading (kill): 3 (3 represents over 90% kill)
[7]; 0.01% by weight, water, 1 day
  Mortality grading (kill): 0 (O represents less than 30% kill)
[7]; in vivo
  abnormal growth effects in larva of mosquitos: abnormal growth effects
[8]
  Mortality grading (kill): 0 (O represents less than 30% kill)
[9]
  Mortality grading (kill), contact test: 0 (O represents less than 30% kill)
[10]
  Mortality grading (kill): 3 (3 represents over 90% kill)
[11]
  Mortality grading (kill): 1 (1 represents 30 - 49% kill)
[12]
  Mortality grading (kill): 0 (O represents less than 30% kill)
Lettuce
  Damage to plants, post-emergence: 3
  Damage to plants, pre-emergence: 3
Tomato
  Damage to plants, post-emergence: 3
  Damage to plants, pre-emergence: 3
Wheat [13]
  Damage to plants, post-emergence: 0
  Damage to plants, pre-emergence: 2
Maize
  Damage to plants, post-emergence: 0
  Damage to plants, pre-emergence: 0
Sugar beet; 1 lb/acre
  Damage to plants, post-emergence: 5
  Damage to plants, pre-emergence: 0
Sugar beet; 5 lb/acre
  Damage to plants, post-emergence: 5
  Damage to plants, pre-emergence: 5
Kale; 1 lb/acre
  Damage to plants, post-emergence: 5
  Damage to plants, pre-emergence: 0
Kale; 5 lb/acre
  Damage to plants, post-emergence: 5
  Damage to plants, pre-emergence: 5
Carrot; 1 lb/acre
  Damage to plants, post-emergence: 5
  Damage to plants, pre-emergence: 2
Carrot; 5 lb/acre
  Damage to plants, post-emergence: 5
  Damage to plants, pre-emergence: 5
Pea; 1 lb/acre
  Damage to plants, post-emergence: 4
  Damage to plants, pre-emergence: 0
Pea; 5 lb/acre
  Damage to plants, post-emergence: 4
  Damage to plants, pre-emergence: 3
Onion; 1 lb/acre
  Damage to plants, post-emergence: 3
  Damage to plants, pre-emergence: 0
Onion; 5 lb/acre
  Damage to plants, post-emergence: 5
  Damage to plants, pre-emergence: 5
Barley [14]; 1 lb/acre
  Damage to plants, post-emergence: 3
  Damage to plants, pre-emergence: 5
Barley [14]; 5 lb/acre
  Damage to plants, post-emergence: 3
  Damage to plants, pre-emergence: 5
Rice; 1 lb/acre
  Damage to plants, post-emergence: 0
  Damage to plants, pre-emergence: 3
Rice; 5 lb/acre
  Damage to plants, post-emergence: 0
  Damage to plants, pre-emergence: 5
Oat; 1 lb/acre
  Damage to plants, post-emergence: 3
  Damage to plants, pre-emergence: 2
Oat; 5 lb/acre
  Damage to plants, post-emergence: 4
  Damage to plants, pre-emergence: 5
Barley [15]; 0.5 kg/hectare
  Damage to plants: 0
Barley [15]; 4 kg/hectare
  Damage to plants: 0
Barley [15]; Tables 13 and 14
  damage to barley (in words): undamaged
Wheat [16]; 0.5 kg/hectare
  Damage to plants: 0
Wheat [16]; 4 kg/hectare
  Damage to plants: 0
Wheat [16]; Tables 13 and 14
  damage to wheat (in words): undamaged
Broadleaved plants
  damage to the broadleaved plants (in words): caused damage to the broadleaved plants
Redshank; 0.5 kg/hectare
  Damage to plants: 5
Redshank; 4 kg/hectare
  Damage to plants: 10
Annual Nettle; 0.5 kg/hectare
  Damage to plants: 10
Annual Nettle; 4 kg/hectare
  Damage to plants: 10
Mayweed; 0.5 kg/hectare
  Damage to plants: 6
Mayweed; 4 kg/hectare
  Damage to plants: 10
Chickweed; 0.5 kg/hectare
  Damage to plants: 8
Chickweed; 4 kg/hectare
  Damage to plants: 10
Groundsel; 0.5 kg/hectare
  Damage to plants: 4
Groundsel; 4 kg/hectare
  Damage to plants: 10
Speedwell; 0.5 kg/hectare
  Damage to plants: 10
Speedwell; 4 kg/hectare
  Damage to plants: 10
White mustard; 0.5 kg/hectare
  Damage to plants: 0
White mustard; 4 kg/hectare
  Damage to plants: 8.5
Wild oat; 0.5 kg/hectare
  Damage to plants: 0
Wild oat; 4 kg/hectare
  Damage to plants: 5.5

From patent publication US3965109A, “Certain aryl amino pyridines” (priority 1971, dated 1976)
